The values below come from patent US11345681B1, “Inhibitors of fibroblast growth factor receptor kinases” (Kinnate Biopharma Inc., priority 2020, dated 2022).

Where only a bound is given, the exact number is not on record here.

For the test, the target named is Wild type FGFR2 (Homo sapiens (Human), UniProt P21802). The test can be described thus: FGFR2 kinase assay (fluorescence-based microfluidic mobility shift assay). In kind it is biochemical. The note with it: wild type FGFR2 0.06 nM, 100 μM ATP, 80 minutes at room temperature.
Wild type FGFR2, sequence (P21802 22-821): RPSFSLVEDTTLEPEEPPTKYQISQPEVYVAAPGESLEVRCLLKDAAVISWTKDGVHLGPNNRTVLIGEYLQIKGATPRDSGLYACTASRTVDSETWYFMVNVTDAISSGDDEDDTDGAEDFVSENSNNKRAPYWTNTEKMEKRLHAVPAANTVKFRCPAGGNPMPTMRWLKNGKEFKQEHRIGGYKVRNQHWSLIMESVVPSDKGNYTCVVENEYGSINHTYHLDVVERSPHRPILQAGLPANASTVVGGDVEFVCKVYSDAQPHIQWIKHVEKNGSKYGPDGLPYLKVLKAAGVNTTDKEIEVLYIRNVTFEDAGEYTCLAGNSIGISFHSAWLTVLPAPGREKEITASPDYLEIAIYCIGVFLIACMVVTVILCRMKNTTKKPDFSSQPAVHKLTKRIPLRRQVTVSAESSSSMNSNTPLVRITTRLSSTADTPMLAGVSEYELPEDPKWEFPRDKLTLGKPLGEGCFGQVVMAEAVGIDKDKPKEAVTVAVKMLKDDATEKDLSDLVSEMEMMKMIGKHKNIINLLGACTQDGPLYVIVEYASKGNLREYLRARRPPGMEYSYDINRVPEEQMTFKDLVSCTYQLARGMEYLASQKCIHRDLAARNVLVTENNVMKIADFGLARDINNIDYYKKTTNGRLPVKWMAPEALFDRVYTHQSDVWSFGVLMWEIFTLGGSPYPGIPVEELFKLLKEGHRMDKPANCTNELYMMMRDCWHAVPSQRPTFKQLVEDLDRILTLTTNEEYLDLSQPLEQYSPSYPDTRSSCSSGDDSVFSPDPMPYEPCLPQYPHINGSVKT

As for `CC#CC(=O)N1C[C@@H](n2nc(C#Cc3c(F)cc4c(ncn4CC)c3F)c(C(N)=O)c2NC)C[C@@H]1COC` [Example 137, 1-[(3S,5R)-1-(but-2-ynoyl)-5-(methoxymethyl)pyrrolidin-3-yl]-3-[2-(1-ethyl-4,6-difluoro-1,3-benzodiazol-5-yl)ethynyl]-5-(methylamino)pyrazole-4-carboxamide], the IC50 (usually the concentration needed to halve the response being measured) (class symbols) is not above 100 nM.
`C=CC(=O)N1C[C@@H](n2nc(C#Cc3cc4ncn(C(F)F)c4cc3F)c(C(N)=O)c2NC)C[C@@H]1COC(F)(F)F` [Example 81, 3-[2-[1-(Difluoromethyl)-6-fluoro-1,3-benzodiazol-5-yl]ethynyl]-5-(methylamino)-1-[(3S,5R)-1-(prop-2-enoyl)-5-[(trifluoromethoxy)methyl]pyrrolidin-3-yl]pyrazole-4-carboxamide]: the IC50 (class symbols) is not above 100 nM.
The same measure, in the same setting: the same measure for `C=CC(=O)N1CC[C@H](n2nc(C#Cc3cc4ncn(C)c4cc3F)c(C(N)=O)c2NC)C1` [Example 139, 3-[2-(6-Fluoro-1-methyl-1,3-benzodiazol-5-yl)ethynyl]-5-(methylamino)-1-[(3S)-1-(prop-2-enoyl)pyrrolidin-3-yl]pyrazole-4-carboxamide]: not above 100 nM.
As for `C#CC(=O)N1CC[C@H](n2nc(C#Cc3cc4ncn(C5CC5)c4cc3F)c(C(N)=O)c2NC)C1` (stereo in doubt) [Example 188, 3-[2-(1-Cyclopropyl-6-fluoro-1,3-benzodiazol-5-yl)ethynyl]-5 (methylamino)-1-[1-(prop-2-ynoyl)pyrrolidin-3-yl]pyrazole-4-carboxamide], the concentration for half-maximal inhibition (IC50) (class symbols) is not above 100 nM.
Turning to `C=CC(=O)N1C[C@@H](n2nc(C#Cc3ccc4c(c3)nc(C(F)(F)F)n4C)c(C(N)=O)c2NC)C[C@@H]1COC` [Example 10], the IC50 (class symbols) is not above 100 nM.
On the same count and under the same terms, as for `C=CC(=O)N1C[C@@H](n2nc(C#Cc3cc4ncn(CC)c4cc3Cl)c(C(N)=O)c2N)C[C@@H]1COC` [Example 196, 5-Amino-3-[2-(6-chloro-1-ethyl-1,3-benzodiazol-5-yl)ethynyl]-1-[(3S,5R)-5-(methoxymethyl)-1-(prop-2-enoyl)pyrrolidin-3-yl]pyrazole-4-carboxamide], the figure is not above 100 nM.
Turning to `C=CC(=O)N1C[C@@H](n2nc(C#Cc3cc4ncc(C)n4cc3F)c(C(N)=O)c2NC)C[C@@H]1COC` [Example 257, 1-((3S,5R)-1-Acryloyl-5-(methoxymethyl)pyrrolidin-3-yl)-3-((6-fluoro-3 methylimidazo[1,2-a]pyridin-7-yl)ethynyl)-5-(methylamino)-1H-pyrazole-4-carboxamide], the IC50 (class symbols) is not above 100 nM.
In the case of `C=CC(=O)N1C[C@@H](n2nc(C#Cc3cc4ncc(F)cc4cc3Cl)c(C(N)=O)c2NC)C[C@@H]1COC` [Example 267, 3-[2-(6-Chloro-3-fluoroquinolin-7-yl)ethynyl]-1-[(3S,5R)-5-(methoxymethyl)-1-(prop-2-enoyl)pyrrolidin-3-yl]-5-(methylamino)pyrazole-4-carboxamide], the IC50 (class symbols) was not above 100 nM.
The same measure, in the same setting: the same measure for `C=CC(=O)N1C[C@@H](n2nc(C#Cc3cc4nc(C)n(C5CC5)c4cc3F)c(C(N)=O)c2NCCO)C[C@@H]1COC` [Example 252, 3-[2-(1-Cyclopropyl-6-fluoro-2-methyl-1,3-benzodiazol-5-yl)ethynyl]-5-[(2-hydroxyethyl)amino]-1-[(3S,5R)-5-(methoxymethyl)-1-(prop-2-enoyl)pyrrolidin-3-yl]pyrazole-4-carboxamide]: not above 100 nM.
For `C=C(F)C(=O)N1CC(n2nc(C#Cc3cc4ncn(C5CC5)c4cc3F)c(C(N)=O)c2NC)C1` [Example 172, 3-((1-Cyclopropyl-6-fluoro-1H-benzo[d]imidazol-5-yl)ethynyl)-1-(1-(2-fluoroacryloyl)azetidin-3-yl)-5-(methylamino)-1H-pyrazole-4-carboxamide], the IC50 (class symbols) is not above 100 nM.
Still for that read-out and setting: as for `C=CC(=O)N1C[C@@H](n2nc(C#Cc3ccc4nn(CC)cc4c3)c(C(N)=O)c2NC)C[C@@H]1COC` [Example 15, 1-((3S,5R)-1-acryloyl-5-(methoxymethyl)pyrrolidin-3-yl)-3-((2-ethyl-2H-indazol-5-yl)ethynyl)-5-(methylamino)-1H-pyrazole-4-carboxamide], the figure is not above 100 nM; as for `C=CC(=O)N1C[C@@H](n2nc(C#Cc3ccn4nccc4c3)c(C(N)=O)c2NC)C[C@@H]1COC` [Example 56, 1-[(3S,5R)-5-(Methoxymethyl)-1-(prop-2-enoyl)pyrrolidin-3-yl]-5-(methylamino)-3-(2-[pyrazolo[1,5-a]pyridin-5-yl]ethynyl)pyrazole-4-carboxamide], not above 100 nM; as for `C=CC(=O)N1C[C@@H](n2nc(C#Cc3ccc4c(n3)nc(C)n4CC)c(C(N)=O)c2NC)C[C@@H]1COC` [Example 39, 3-(2-[1-ethyl-2-methylimidazo[4,5-b]pyridin-5-yl]ethynyl)-1-[(3S,5R)-5-(methoxymethyl)-1-(prop-2-enoyl)pyrrolidin-3-yl]-5-(methylamino)pyrazole-4-carboxamide], 100 to 1000 nM.
On the same count and under the same terms, as for `C=CC(=O)N1C[C@@H](n2nc(C#Cc3c(F)ccc4c3cnn4C3CC3)c(C(N)=O)c2NC)C[C@@H]1COC` [Example 287, 1-((3S,5R)-1-Acryloyl-5-(methoxymethyl)pyrrolidin-3-yl)-3-((1-cyclopropyl-5-fluoro-1H-indazol-4-yl)ethynyl)-5-(methylamino)-1H-pyrazole-4-carboxamide], the figure is not above 100 nM; as for `C=CC(=O)N1C[C@@H](n2nc(C#Cc3cc4nc(C)n(C5CC5)c4cc3Cl)c(C(N)=O)c2N)C[C@@H]1[C@H](C)O` [Example 245, 1-((3S,5R)-1-Acryloyl-5-((S)-1-hydroxyethyl)pyrrolidin-3-yl)-5-amino-3-((6-chloro-1-cyclopropyl-2-methyl-1H-benzo[d]imidazol-5-yl)ethynyl)-1H-pyrazole-4-carboxamide], not above 100 nM; as for `C=CC(=O)N1C[C@@H](n2nc(C#Cc3cc4c(cc3Cl)ncn4C(F)F)c(C(N)=O)c2NC)C[C@@H]1COC` [Example 93, 3-[2-[6-Chloro-3-(difluoromethyl)-1,3-benzodiazol-5-yl]ethynyl]-1-[(3S,5R)-5-(methoxymethyl)-1-(prop-2-enoyl)pyrrolidin-3-yl]-5-(methylamino)pyrazole-4-carboxamide], not above 100 nM.
Same read-out and setting: the same measure for `C#CC(=O)N1C[C@@H](n2nc(C#Cc3c(F)cc4c(ncn4C4CC4)c3F)c(C(N)=O)c2NC)C[C@@H]1COC` [Example 184, 3-[2-(1-cyclopropyl-4,6-difluoro-1,3-benzodiazol-5-yl)ethynyl]-1-[(3S,5R)-5-(methoxymethyl)-1-(prop-2-ynoyl)pyrrolidin-3-yl]-5-(methylamino)pyrazole-4-carboxamide]: not above 100 nM; for `C=CC(=O)N1C[C@@H](n2nc(C#Cc3cc4ncn(C5CCC5)c4cc3Cl)c(C(N)=O)c2NC)C[C@@H]1COC` [Example 232, 3-[2-(6-chloro-1-cyclobutyl-1,3-benzodiazol-5-yl)ethynyl]-1-[(3S,5R)-5-(methoxymethyl)-1-(prop-2-enoyl)pyrrolidin-3-yl]-5-(methylamino)pyrazole-4-carboxamide]: not above 100 nM.
`C=CC(=O)N1C[C@@H](n2nc(C#Cc3cc4nc(C)n(C5CC5)c4cc3F)c(C(N)=O)c2N)C[C@@H]1[C@@H](C)O` [Example 246]: the IC50 (class symbols) was not above 100 nM.
The same measure, in the same setting: as for `C=CC(=O)N1C[C@@H](n2nc(C#Cc3cc4nc(C)n(C)c4cc3F)c(C(N)=O)c2NC)C[C@@H]1COC` [Example 28, 1-((3S,5R)-1-acryloyl-5-(methoxymethyl)pyrrolidin-3-yl)-3-((6-fluoro-1,2-dimethyl-1H-benzo[d]imidazol-5-yl)ethynyl)-5-(methylamino)-1H-pyrazole-4-carboxamide], the figure is not above 100 nM; as for `C=CC(=O)N1C[C@@H](n2nc(C#Cc3c(F)cc4c(ncn4C(F)F)c3F)c(C(N)=O)c2NC)C[C@@H]1COC` [Example 30, 1-((3S,5R)-1-acryloyl-5-(methoxymethyl)pyrrolidin-3-yl)-3-((1-(difluoromethyl)-4,6-difluoro-1H-benzo[d]imidazol-5-yl)ethynyl)-5-(methylamino)-1H-pyrazole-4-carboxamide], not above 100 nM; as for `C=CC(=O)N1C[C@@H](n2nc(C#Cc3cc4ncn(C5CC5)c4cc3F)c(C(N)=O)c2N)C[C@@H]1CO` [Example 207, 5-Amino-3-[2-(1-cyclopropyl-6-fluoro-1,3-benzodiazol-5-yl)ethynyl]-1-[(3S,5R)-5-(hydroxymethyl)-1-(prop-2-enoyl)pyrrolidin-3-yl]pyrazole-4-carboxamide], not above 100 nM.
As to `C=CC(=O)N1CC(n2nc(C#Cc3cc4ncn(CC)c4cc3Cl)c(C(N)=O)c2N)C1` [Example 209, 5-Amino-3-[2-(6-chloro-1-ethyl-1,3-benzodiazol-5-yl)ethynyl]-1-[1-(prop-2-enoyl)azetidin-3-yl]pyrazole-4-carboxamide], the IC50 (class symbols) was not above 100 nM.
The same measure, in the same setting: as for `C=CC(=O)N1C[C@@H](n2nc(C#Cc3c(F)cc4c(cnn4C)c3F)c(C(N)=O)c2NC)C[C@@H]1COC` [Example 19, 1-((3S,5R)-1-acryloyl-5-(methoxymethyl)pyrrolidin-3-yl)-3-((4,6-difluoro-1-methyl-1H-indazo1-5-yl)ethynyl)-5-(methylamino)-1H-1-pyrazole-4-carboxamide], the figure is not above 100 nM.
Still for that read-out and setting: as for `C=CC(=O)N1C[C@@H](n2nc(C#Cc3cnc4c(c3)nc(C)n4CC)c(C(N)=O)c2NC)C[C@@H]1COC` [Example 22, 1-((3S,5R)-1-acryloyl-5-(methoxymethyl)pyrrolidin-3-yl)-3-((3-ethyl-2-methyl-3H-imidazo[4,5-b]pyridin-6-yl)ethynyl)-5-(methylamino)-1H-pyrazole-4-carboxamide], the figure is not above 100 nM.
On to `C=CC(=O)N1C[C@@H](n2nc(C#Cc3cnc4nccn4c3)c(C(N)=O)c2NC)C[C@@H]1COC` [Example 57, 3-(2-[Imidazo[1,2-a]pyrimidin-6-yl]ethynyl)-1-[(3S,5R)-5-(methoxymethyl)-1-(prop-2-enoyl)pyrrolidin-3-yl]-5-(methylamino)pyrazole-4-carboxamide], for which the IC50 (given as numeric bound) is more than 500 nM.
